Columns and labels:
cynomolgus monkeys = experiment: Evaluation of wake-promoting effects in cynomolgus monkeys (EEG/EMG/EOG); format: in vivo; settings: Macaca fascicularis, sc, 4 h; 1 mg/kg, s.c., cynomolgus monkeys, administered at ZT12; read-out: Wakefulness time (% of vehicle treatment) (Mean, n = 1-2)
Description: The wake-promoting effects were evaluated by measuring the electroencephalogram (EEG), electromyogram (EMG) and electrooculogram (EOG) in cynomolgus monkeys. Under isoflurane anesthesia (1-5%, Pfizer Japan Inc., Tokyo, Japan), male cynomolgus monkeys (3-5 years old, Hamri Co., Ltd., Ibaraki, Japan) were surgically implanted with radio-telemetry transmitters (TL10M3-D70-EEE, Data Sciences International Inc., MN, USA). EEG leads were stereotaxically positioned at the parietal area and secured to the cranium with stainless-steel screws in contact with the dura. […] Bilateral EMG leads were implanted into the back cervical muscles. After the surgery, each monkey was given penicillin (100,000 units/head, i.m., Meiji Seika Pharma Co., Ltd., Tokyo, Japan), buprenorphine (0.02 mg/kg, i.m., Otsuka Pharmaceutical Co., Ltd., Tokyo, Japan) and prednisolone (1 mg/kg, s.c., Kyoritsu Seiyaku Co., Ltd., Tokyo, Japan) daily for one week. After at least a 1-month recovery period in home cages, the monkeys were habituated to the recording chamber (an acrylic cage 60W×55D×75H (cm)) located in a soundproof, electrically shielded room. After we confirmed that monkeys slept sufficiently in the experimental room, cortical EEG, EMG and EOG signals were recorded using Dataquest ART software (Data Sciences International Inc., MN, USA). The signals were semi automatically scored in 20 sec epochs by a sleep scoring system (SleepSign, Kissei Comtec Co., Ltd., Nagano, Japan). This preliminary scoring was visually inspected and corrected if necessary. Test compound (10 mg/kg, Table 4-1) suspended in 0.5% methylcellulose aqueous solution, or vehicle (i.e., 0.5% methylcellulose aqueous solution) was administered orally (p.o.) to monkeys at zeitgeber time 12 (ZT12) in a volume of 5 mL/kg body weight in a cross-over design. EEG, EMG and EOG recordings were performed for 4 h after the compound administration/treatments. The time spent in wakefulness for 4 h after administration (% of vehicle treatment) was calculated by using SleepSign. Test compound (1 mg/kg, Table 4-2) dissolved in a mixed solution comprising 5% DMSO, 5% Cremophor EL, 20% PEG400 and 70% soluplus (1% (w/v)), or vehicle (i.e., a mixed solution comprising 5% DMSO, 5% Cremophor EL, 20% PEG400 and 70% soluplus (1% (w/v))) was administered subcutaneously (s.c.) to monkeys at ZT12 in a volume of 0.5 mL/kg body weight in a pre-post design. EEG, EMG and EOG recordings were performed for 4 h after the compound administration/treatments. The time spent in wakefulness for 4 h after administration (% of vehicle treatment) was calculated by using SleepSign.

[1] = target: T1, human orexin type 2 receptor (Homo sapiens, UniProt O43614); experiment: Measurement of orexin type 2 receptor agonist activity (calcium fluorescence, CHO cells expressing hOX2R); format: cell-based; settings: test compound 3 μM; CHO cells expressing human OX2 receptor; DMSO = 0%, orexin A (human) = 100%
T1 construct: human orexin type 2 receptor cDNA was inserted into pcDNA3.1(+) plasmid vector (Invitrogen); expressed in transfected cells
T1 sequence (O43614 1-444): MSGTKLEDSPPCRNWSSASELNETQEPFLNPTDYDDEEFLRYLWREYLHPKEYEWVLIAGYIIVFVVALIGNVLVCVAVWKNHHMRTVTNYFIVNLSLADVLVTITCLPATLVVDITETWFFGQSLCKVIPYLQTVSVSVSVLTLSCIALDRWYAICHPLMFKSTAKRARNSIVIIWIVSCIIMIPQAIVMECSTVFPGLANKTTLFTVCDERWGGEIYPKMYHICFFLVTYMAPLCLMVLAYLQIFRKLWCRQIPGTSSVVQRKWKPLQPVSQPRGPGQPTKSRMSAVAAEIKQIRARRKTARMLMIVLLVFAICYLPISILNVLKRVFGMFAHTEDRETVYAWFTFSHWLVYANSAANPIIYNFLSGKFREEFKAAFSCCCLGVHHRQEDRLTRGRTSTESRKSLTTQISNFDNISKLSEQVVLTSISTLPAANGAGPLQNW
Outline: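 CHO-dhfr cells stably expressing hOX2R, loaded with Fluo-4 AM in HBSS/20 mM HEPES/0.1% BSA with probenecid, then given test compound. Calcium fluorescence was read for about 2 min 40 sec. Activity (%) was scaled between DMSO (0%) and 10 nM final human orexin A (100%).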

Structure (SMILES)	OX2R agonist activity (3 μM, %) [1]	response vs control in vivo at 1 mg/kg (cynomolgus monkeys)
CCS(=O)(=O)N[C@H]1CCN(C(=O)N2CCC2)[C@H]1Cc1cccc(-c2cccc(F)c2)c1F [Example 372, N-((2S,3S)-1-(azetidin-1-ylcarbonyl)-2-((2,3′-difluorobiphenyl-3-yl)methyl)pyrrolidin-3-yl)ethanesulfonamide]	98%	328%
CN(C)C(=O)N1CC[C@H](NS(=O)(=O)N(C)C)[C@@H]1Cc1cccc(-c2cccc(F)c2)c1F [Example 377, (2S,3S)-2-((2,3′-difluorobiphenyl-3-yl)methyl)-3-((dimethylsulfamoyl)amino)-N,N-dimethylpyrrolidine-1-carboxamide]	103%	343%
CCS(=O)(=O)N[C@H]1CCN(C(=O)N(C)OC)[C@H]1Cc1cccc(-c2ccccc2)c1 [Example 407, (2S,3S)-2-(biphenyl-3-ylmethyl)-3-((ethylsulfonyl)amino)-N-methoxy-N-methylpyrrolidine-1-carboxamide]	107%	391%
CCS(=O)(=O)N[C@H]1CCN(C(=O)N2CCC2)[C@H]1Cc1cccc(-c2ccccc2)c1F [Example 456, N-{(2S,3S)-1-(azetidine-1-carbonyl)-2-[(2-fluoro[1,1′-biphenyl]-3-yl)methyl]pyrrolidin-3-yl}ethanesulfonamide]	104%	446%
CCS(=O)(=O)N[C@H]1CCN(C(=O)N(C)OC)[C@H]1Cc1cccc(-c2cccc(F)c2)c1 [Example 474, (2S,3S)-3-[(ethanesulfonyl)amino]-2-[(3′-fluoro[1,1′-biphenyl]-3-yl)methyl]-N-methoxy-N-methylpyrro-lidine-1-carboxamide]	109%	329%
CN(C)C(=O)N1CC[C@H](NS(=O)(=O)N(C)C)[C@@H]1Cc1cccc(-c2ccccc2)c1F [Example 475, (2S,3S)-3-[(dimethylsulfamoyl)amino]-2-[(2-fluoro[1,1′-biphenyl]-3-yl)methyl]-N,N-dimethyl-pyrrolidine-1-carboxamide]	104%	410%
CN(C)C(=O)N1CC[C@H](NS(=O)(=O)N(C)C)[C@@H]1Cc1cccc(-c2cc(F)cc(F)c2)c1F [Example 476, (2S,3S)-3-[(dimethylsulfamoyl)amino]-N,N-dimethyl-2-[(2,3′,5′-trifluoro[1,1′-biphenyl]-3-yl)methyl]pyrrolidine-1-carboxamide]	103%	392%
CS(=O)(=O)N[C@H]1CCN(C(=O)N2CCC2)[C@H]1Cc1cccc(-c2cccc(F)c2)c1F [Example 485, N-((2S,3S)-1-(azetidin-1-ylcarbonyl)-2-((2,3′-difluorobiphenyl-3-yl)methyl)pyrrolidin-3-yl)methanesulfonamide]	104%	449%

Second part, led by results:

OX2R agonist activity (3 μM, %) [1]	Structure (SMILES)	response vs control in vivo at 1 mg/kg (cynomolgus monkeys)
103%	CCS(=O)(=O)N[C@H]1CCN(C(=O)N2CCC2)[C@H]1Cc1cccc(-c2cc(F)cc(F)c2)c1 [Example 362, N-((2S,3S)-1-(azetidin-1-ylcarbonyl)-2-((3′,5′-difluorobiphenyl-3-yl)methyl)pyrrolidin-3-yl)ethanesulfonamide]	271%
104%	CCS(=O)(=O)N[C@H]1CCN(C(=O)N2CCC2)[C@H]1Cc1cccc(-c2ccccc2)c1 [Example 364, N-((2S,3S)-1-(azetidin-1-ylcarbonyl)-2-(biphenyl-3-ylmethyl)pyrrolidin-3-yl)ethanesulfonamide]	375%
106%	CCS(=O)(=O)N[C@H]1CCN(C(=O)N(C)OC)[C@H]1Cc1cccc(-c2cc(F)cc(F)c2)c1 [Example 477, (2S,3S)-2-[(3′,5′-difluoro[1,1′-biphenyl]-3-yl)methyl]-3-[(ethane-sulfonyl)amino]-N-methoxy-N-methylpyrrolidine-1-carboxamide]	383%

Reference: patent US20200207734A1, “HETEROCYCLIC COMPOUND AND USE THEREOF” (Takeda Pharmaceutical Company Limited, priority 2017, published 2020)
